Laboratory results as given in patent publication US20210115040A1, “OGA INHIBITOR COMPOUNDS” (Janssen Pharmaceutica NV, priority 2018, published 2021).

Tests used:
[1] = biological target: T1, recombinant human Meningioma Expressed Antigen 5 (MGEA5), also referred to as O-GlcNAcase (OGA) (Homo sapiens, UniProt O60502); assay: OGA biochemical assay (inhibition of FM-GlcNAc hydrolysis, fluorescence); details: FM-GlcNAc substrate; for IC50: 6 h at room temperature, read-out: Enzymatic hOGA, pIC50 (converted); for Emax: read-out: Enzymatic Emax (%)
T1 construct: Full length OGA enzyme was purchased at OriGene (cat #TP322411); purchased OriGene TP322411
T1 sequence (O60502 1-916): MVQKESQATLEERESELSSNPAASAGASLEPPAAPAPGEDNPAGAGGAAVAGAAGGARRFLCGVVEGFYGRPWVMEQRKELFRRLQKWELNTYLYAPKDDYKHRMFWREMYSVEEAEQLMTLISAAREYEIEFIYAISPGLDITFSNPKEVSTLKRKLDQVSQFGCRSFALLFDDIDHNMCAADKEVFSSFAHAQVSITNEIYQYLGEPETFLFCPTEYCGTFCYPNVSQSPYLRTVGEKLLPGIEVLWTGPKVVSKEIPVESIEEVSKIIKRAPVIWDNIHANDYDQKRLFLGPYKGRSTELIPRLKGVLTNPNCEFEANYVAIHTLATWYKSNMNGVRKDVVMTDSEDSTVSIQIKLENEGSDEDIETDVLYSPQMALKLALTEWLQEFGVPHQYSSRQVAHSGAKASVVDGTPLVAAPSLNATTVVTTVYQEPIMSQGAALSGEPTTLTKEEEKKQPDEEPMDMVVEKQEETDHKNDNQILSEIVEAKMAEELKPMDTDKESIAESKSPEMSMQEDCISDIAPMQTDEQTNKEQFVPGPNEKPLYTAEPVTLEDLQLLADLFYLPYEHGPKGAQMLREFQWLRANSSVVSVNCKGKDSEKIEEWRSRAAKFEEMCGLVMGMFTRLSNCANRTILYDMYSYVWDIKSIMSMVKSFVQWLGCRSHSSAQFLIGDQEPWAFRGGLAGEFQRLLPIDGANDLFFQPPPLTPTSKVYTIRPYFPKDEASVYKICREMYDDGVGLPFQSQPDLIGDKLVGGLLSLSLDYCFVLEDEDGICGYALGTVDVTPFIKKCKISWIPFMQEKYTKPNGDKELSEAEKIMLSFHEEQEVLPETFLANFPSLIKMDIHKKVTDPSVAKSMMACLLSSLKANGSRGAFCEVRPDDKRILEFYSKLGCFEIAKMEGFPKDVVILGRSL
From the text: The assay is based on the inhibition of the hydrolysis of fluorescein mono-β-D-N-Acetyl-Glucosamine (FM-GlcNAc) (Mariappa et al. 2015, Biochem J 470:255) by the recombinant human Meningioma Expressed Antigen 5 (MGEA5), also referred to as O-GlcNAcase (OGA). The hydrolysis FM-GlcNAc (Marker Gene technologies, cat #M1485) results in the formation of β-D-N-glucosamineacetate and fluorescein. The fluorescence of the latter can be measured at excitation wavelength 485 nm and emission wavelength 538 nm. An increase in enzyme activity results in an increase in fluorescence signal. Full length OGA enzyme was purchased at OriGene (cat #TP322411). The enzyme was stored in 25 mM Tris.HCl, pH 7.3, 100 mM glycine, 10% glycerol at −20° C. Thiamet G and GlcNAcStatin were tested as reference compounds (Yuzwa et al. 2008 Nature Chemical Biology 4:483; Yuzwa et al. 2012 Nature Chemical Biology 8:393). The assay was performed in 200 mM Citrate/phosphate buffer supplemented with 0.005% Tween-20. 35.6 g Na2HPO4 2H2O (Sigma, #C0759) were dissolved in 1 L water to obtain a 200 mM solution. 19.2 g citric acid (Merck, #1.06580) was dissolved in 1 L water to obtain a 100 mM solution. pH of the sodiumphosphate solution was adjusted with the citric acid solution to 7.2. The buffer to stop the reaction consists of a 500 mM Carbonate buffer, pH 11.0. 734 mg FM-GlcNAc were dissolved in 5.48 mL DMSO to obtain a 250 mM solution and was stored at −20° C. OGA was used at a 2 nM concentration and FM-GlcNAc at a 100 uM final concentration. Dilutions were prepared in assay buffer.
50 nl of a compound dissolved in DMSO was dispensed on Black Proxiplate™ 384 Plus Assay plates (Perkin Elmer, #6008269) and 3 μl fl-OGA enzyme mix added subsequently. Plates were pre-incubated for 60 min at room temperature and then 2 μl FM-GlcNAc substrate mix added. […] Plates were briefly centrifuged for 1 min at 1000 rpm and incubate at room temperature for 6 h. To stop the reaction 5 μl STOP buffer were added and plates centrifuge again 1 min at 1000 rpm. Fluorescence was quantified in the Thermo Scientific Fluoroskan Ascent or the PerkinElmer EnVision with excitation wavelength 485 nm and emission wavelength 538 nm.
For analysis a best-fit curve is fitted by a minimum sum of squares method. From this an IC50 value and Hill coefficient was obtained. High control (no inhibitor) and low control (saturating concentrations of standard inhibitor) were used to define the minimum and maximum values.

OGA = biological target: T2, OGA (Homo sapiens, UniProt O60502); assay: OGA cellular assay (ICC detection of O-GlcNAcylated proteins in HEK293 cells inducible for P301L mutant human Tau); assay type: cell-based; details: for Emax: HEK293, HEK293 cells inducible for P301L mutant human Tau, maximum = Thiamet G 200 uM; for EC50: HEK293 cells inducible for P301L mutant human Tau, 6 hours incubation, read-out: Cellular hOGA, pEC50 (converted)
T2 construct: HEK293 cells inducible for P301L mutant human Tau (isoform 2N4R) were established at Janssen; endogenous in cells; host or cells: HEK293 cells inducible for P301L mutant human Tau (2N4R)
T2 sequence (O60502 1-916): T1 sequence (O60502 1-916)
Method: HEK293 cells inducible for P301L mutant human Tau (isoform 2N4R) were established at Janssen. Thiamet-G was used for both plate validation (high control) and as reference compound (reference EC50 assay validation). OGA inhibition is evaluated through the immunocytochemical (ICC) detection of O-GlcNAcylated proteins by the use of a monoclonal antibody (CTD110.6; Cell Signaling, #9875) detecting 0-GlcNAcylated residues as previously described (Dorfmueller et al. 2010 Chemistry & biology, 17:1250). Inhibition of OGA will result in an increase of O-GlcNAcylated protein levels resulting in an increased signal in the experiment. Cell nuclei are stained with Hoechst to give a cell culture quality control and a rough estimate of immediate compounds toxicity, if any. ICC pictures are imaged with a Perkin Elmer Opera Phenix plate microscope and quantified with the provided software Perkin Elmer Harmony 4.1.
Cells were propagated in DMEM high Glucose (Sigma, #D5796) following standard procedures. 2 days before the cell assay cells are split, counted and seeded in Poly-D-Lysine (PDL) coated 96-wells (Greiner, #655946) plate at a cell density of 12,000 cells per cm^2 (4,000 cells per well) in 100 μl of Assay Medium (Low Glucose medium is used to reduce basal levels of GlcNAcylation) (Park et al. 2014 The Journal of biological chemistry 289:13519). At the day of compound test medium from assay plates was removed and replenished with 90 μl of fresh Assay Medium. 10 μl of compounds at a 10fold final concentration were added to the wells. Plates were centrifuged shortly before incubation in the cell incubator for 6 hours. DMSO concentration was set to 0.2%. Medium is discarded by applying vacuum. For staining of cells medium was removed and cells washed once with 100 μl D-PBS (Sigma, #D8537). From next step onwards unless other stated assay volume was always 50 μl and incubation was performed without agitation and at room temperature. Cells were fixed in 50 μl of a 4% paraformaldehyde (PFA, Alpha aesar, #043368) PBS solution for 15 minutes at room temperature. […] Before analysis samples were washed 2 times manually for 5 minutes in ICC base buffer.
Imaging is performed using Perkin Elmer Phenix Opera using a water 20× objective and recording 9 fields per well. Intensity readout at 488 nm is used as a measure of O-GlcNAcylation level of total proteins in wells. To assess potential toxicity of compounds nuclei were counted using the Hoechst staining. IC50-values are calculated using parametric non-linear regression model fitting. As a maximum inhibition Thiamet G at a 200 uM concentration is present on each plate. In addition, a concentration response of Thiamet G is calculated on each plate.

Structure (SMILES)	IC50 [1] [nM]	Emax ([1]; maximal effect) [%]	Emax (OGA) [%]	EC50 (OGA) [nM]	Enzymatic Emax (%) ([1]; maximal effect)
COc1cc(C2CCCN(C(C)c3ccc4oc(C)nc4n3)C2)cc(C)n1 (racemic) [Compound 18]	20	100	76	158	
Cc1cc(C2CCCN(C(C)c3ccc4oc(C)nc4n3)C2)cc(C(F)(F)F)n1 (racemic) [Compound 19]	20	99	68	501	
COc1cc(C2CCCN(C(C)c3ccc4oc(C)nc4n3)C2)cc(C(F)(F)F)n1 (racemic) [Compound 20]	20	101	60	631	
Cc1cc(C[C@H]2CCCN(C(C)c3ccc4oc(C)nc4n3)C2)cc(C)n1 (mixture of isomers) [Compound 22]	3.16	101	91	12.6	
Cc1cc(C[C@H]2CCCN(C(C)c3ccc4oc(C)nc4n3)C2)cc(C(F)(F)F)n1 (mixture of isomers) [Compound 24ab]	12.6	103	91	50.1	
Cc1cc(C[C@H]2CCCN(C(C)c3ccc4oc(C)nc4n3)C2)cc(OC(F)(F)F)n1 (mixture of isomers) [Compound 25ab]	15.8	101	86	200	
Cc1cc(C[C@H]2CCCN(C(C)c3cnc4oc(C)nc4c3)C2)cc(C)n1 (mixture of isomers) [Compound 30]	12.6	102	79	200	
Cc1cc(C[C@@H]2CCN(C(C)c3ccc4oc(C(C)C)nc4n3)C2)cc(C)n1 (mixture of isomers) [Compound 31]	> 10000	30	-7	> 1000	
Cc1cc(C[C@@H]2CCN(C(C)c3ccc4sc(C)nc4n3)C2)cc(C)n1 (mixture of isomers) [Compound 43]	53.7	103	60	631	
Cc1cc(OC[C@H]2CCCN(C(C)c3ccc4sc(C)nc4n3)C2)cc(C)n1 (mixture of isomers) [Compound 46ab]	5.01	101	85	15.8	
Cc1cc(OC[C@H]2CCCN(C(C)c3ccc4sc(C)nc4n3)C2)nc(C)n1 (mixture of isomers) [Compound 49ab]	12.6	100	68	100	
Cc1cc(C[C@@H]2CCN(C(C)c3nc4nc(C)sc4cc3F)C2)cc(C)n1 (mixture of isomers) [Compound 50]	20	102	77	200	
Cc1cc([C@H]2CCCN([C@H](C)c3ccc4sc(C)nc4n3)C2)nc(C)n1 (racemic) [Compound 70]	63.1	98	55	794	
Cc1cc([C@H]2CCCN([C@@H](C)c3ccc4sc(C)nc4n3)C2)nc(C)n1 (racemic) [Compound 71]	7940	51	-5	> 1000	
Cc1cc([C@H]2CCCN([C@H](C)c3ccc4sc(C)nc4n3)C2)cc(C)n1 (racemic) [Compound 75]	2000	86	-1	> 1000	
Cc1cc([C@H]2CCCN([C@@H](C)c3ccc4sc(C)nc4n3)C2)cc(C)n1 (racemic) [Compound 76]	5.01	98	67	31.6	
COc1cc(C[C@H]2CCCN([C@H](C)c3ccc4oc(C)nc4n3)C2)cc(C)n1 (relative stereo) [Compound 23a]	7.94	101	79	25.1	
Cc1cc(C[C@H]2CCCN(C(C)c3ccc4sc(C)nc4n3)C2)cc(C)n1 (single isomer, unassigned) [Compound 42b]	2.51		79	10	101
Cc1cc(CO[C@H]2CCCN(C(C)c3ccc4sc(C)nc4n3)C2)cc(C)n1 (single isomer, unassigned) [Compound 67]	501	94	5	> 1000	
Cc1cc(CO[C@@H]2CCCN(C(C)c3ccc4sc(C)nc4n3)C2)cc(C)n1 (single isomer, unassigned) [Compound 69]	501	96	-6	> 1000	
Cc1cc(C[C@@H]2CCN(C(C)c3ccc4sc(C)nc4n3)C2)nc(C)n1 (single isomer, unassigned) [Compound 72]	316	95	18	> 1000	
